B1: IL-4: anti-inflammatory cytokine (R&D Systems, USA) (protein, UniProt P05112 25-153, looked up)
Interleukin-4: HKCDITLQEIIKTLNSLTEQKTLCTELTVTDIFAASKNTTEKETFCRAATVLRQFYSHHEKDTRCLGATAQQFHRHKQLIRFLKRLDRNLWGLAGLNSCPVKEANQSTLENFLERLKTIMREKYSKCSS
B2: IL-12: anti-inflammatory cytokine (R&D Systems, USA) (protein, UniProt P29459 23-219; P29460 23-328, looked up)
Interleukin-12 subunit alpha: RNLPVATPDPGMFPCLHHSQNLLRAVSNMLQKARQTLEFYPCTSEEIDHEDITKDKTSTVEACLPLELTKNESCLNSRETSFITNGSCLASRKTSFMMALCLSSIYEDLKMYQVEFKTMNAKLLMDPKRQIFLDQNMLAVIDELMQALNFNSETVPQKSSLEEPDFYKTKIKLCILLHAFRIRAVTIDRVMSYLNAS
Interleukin-12 subunit beta: IWELKKDVYVVELDWYPDAPGEMVVLTCDTPEEDGITWTLDQSSEVLGSGKTLTIQVKEFGDAGQYTCHKGGEVLSHSLLLLHKKEDGIWSTDILKDQKEPKNKTFLRCEAKNYSGRFTCWWLTTISTDLTFSVKSSRGSSDPQGVTCGAATLSAERVRGDNKEYEYSVECQEDSACPAAEESLPIEVMVDAVHKLKYENYTSSFFIRDIIKPDPPKNLQLKPLKNSRQVEVSWEYPDTWSTPHSYFSLTFCVQVQGKSKREKKDRVFTDKTSATVICRKNASISVRAQDRYYSSSWSEWASVPCS
B3: IL-10: anti-inflammatory cytokine (R&D Systems, USA) (protein, UniProt P22301 19-178, looked up)
Interleukin-10: SPGQGTQSENSCTHFPGNLPNMLRDLRDAFSRVKTFFQMKDQLDNLLLKESLLEDFKGYLGCQALSEMIQFYLEEVMPQAENQDPDIKAHVNSLGENLKTLRLRLRRCHRFLPCENKSKAVEQVKNAFNKLQEKGIYKAMSEFDIFINYIEAYMTMKIRN

Legend:
[1] = test system: cartilage degeneration-inducing factors MMP (1, 3, 9, 12, 13), ADAMTS4, PTGS2, NOS2; assay: Expression of cartilage degeneration-inducing factors in chondrocytes after HIF-2α siRNA (RT-PCR, western blot, qRT-PCR); assay type: cell-based, mouse; conditions: for expression of the cartilage degeneration-inducing factors MMP (1, 3, 9, 12, 13), ADAMTS4, PTGS2, NOS2: siRNA 25, 50, 100 nM for 7 hours, then IL-1β medium 1.5 days, vs C-siRNA 100 nM
Method: Also, the expression of the cartilage degeneration-inducing factors was investigated after artificially inhibiting expression of HIF-2α using an siRNA specific for HIF-2α. More specifically, mouse knee joint chondrocytes were kept in a culture medium for 72 hours. After infecting with control (C-siRNA, 100 nM) or HIF-2α siRNA (25, 50, 100 nM) for 7 hours, the cells were cultured in a medium containing IL-1B for 1.5 days. The cells were recovered and cartilage degeneration-inducing factors were identified by RT-PCR and western blot. GAPDH and lamin B were used as loading control. Also, mRNA (FIG. 3a) and protein (FIG. 3b) levels of HIF-2α, MMP, ADAMTS, PTGS2 and NOS2 were measured by RT-PCR and western blot and their expression level was quantitated by qRT-PCR (FIGS. 3c and 3d). GAPDH and lamin B were used as loading control. Primers used in PCR are described in Table 1. As a result, it was confirmed that the expression of the cartilage degeneration-inducing factors MMP (1, 3, 9, 12, 13), ADAMTS4, PTGs2, NOS2, etc. is decreased as the expression of HIF-2α is inhibited.
(§1) Also, it was confirmed by qRT-PCR that the expression level of these transcripts is increased by Ad-HIF-2α and decreased by siRNA (FIG. 4a). The experimental procedure was the same as with MMP and ADAMT as described above. NOS2 and PTGS2 regulate cartilage degeneration by inducing production of nitric oxide (NO) and prostaglandin E2 (PGE2), respectively. The level of these metabolites was increased by Ad-HIF-2α and decreased by siRNA, as the expression level of PTGS2 and NOS2 transcripts (FIG. 4b).

[2] = test system: nitric oxide (NO) and prostaglandin E2 (PGE2); assay: Production of nitric oxide (NO) and prostaglandin E2 (PGE2) in articular chondrocytes; assay type: cell-based; conditions: mouse knee joint chondrocytes
From the text: as §1

MAP kinase = MAP kinase phosphorylation in cytokine-treated chondrocytes; assay type: cell-based; conditions: cytokine-treated mouse knee articular chondrocytes, HIF-2α-siRNA
From the text: According to a preferred embodiment, the siRNA of the present invention has nucleotide sequence included the nucleotide sequence as set forth in SEQ ID NO:1.

HIF-2α = assay: Expression of HIF-2α in mouse knee joint chondrocytes (RT-PCR, qRT-PCR, western blot); assay type: cell-based; conditions: for expression of HIF-2α: mouse knee joint chondrocytes treated with the cytokine; for expression of HIF-2α transcripts and proteins: signal pathway inhibitor in chondrocytes
Method: In order to induce pathological condition of cartilage degeneration in knee joint chondrocytes of mouse (Charles River, Japan), the cells were treated with interleukin 1β (IL-1β, Calbiochem, USA), IL-17 (R&D Systems, USA), TNF-α (R&D Systems, USA) or IL-21 (R&D Systems, USA), which are known as proinflammatory cytokines. The expression level of HIF-2α was investigated by RT-PCR, qRT-PCR and western blot. The mouse knee joint chondrocytes were isolated from the knee joint of 8-day-old ICR mouse (Charles River, Japan) and cultured in DMEM (Gibco, USA) containing 10% (v/v) fetal bovine serum (Gibco, USA), 50 μg/mL streptomycin (Sigma-Aldrich, USA) and 50 unit/mL penicillin (Sigma-Aldrich, USA). As a result, it was confirmed that whereas the expression of HIF-2α is increased by the proinflammatory cytokines, it is not affected by the anti-inflammatory cytokines IL-4 (R&D Systems, USA), IL-10 (R&D Systems, USA) and […] (R&D Systems, USA) (FIGS. 2a and 2b). IL-1β activates various signal transduction pathways in chondrocytes. Activation of NF-κβ and degradation of IκB protein were confirmed by western blot, and phosphorylation of extracellular signal-regulated kinase (ERK), c-Jun N-terminal kinase (JNK) and p38 MAP kinase from among mitogen-activated protein (MAP) kinase subtypes was confirmed by western blot (FIG. 2c). […] Accordingly, it was confirmed through RT-PCR and western blot (FIG. 2d) and quantification of HIF-2α transcripts by real-time RT-PCR (qRT-PCR) that NFkB and JNK regulate the expression of HIF-2α (FIG. 2e). It was confirmed through immunohistochemical staining that IκB and phosphorylated JNK (pJNK) activating NF-κβ are activated in larger amounts in human degenerative articular cartilage tissue (OA; osteoarthritis) as compared to normal cartilage (Normal).

Row | Molecule | expression of HIF-2α (HIF-2α) | also measured
1 | HIF-2α siRNA: siRNA specific for HIF-2α; mouse sense 5′-AGUUGUUGUAGACUUUCACCUGGC-3′, antisense 5′-GGCCAGGUGAAAGUCUACAACAAC-3′ (SEQ ID NO 4, 5) (listed as RNA, chemistry not given here) | – | expression level of PTGS2 and NOS2 transcripts (qRT-PCR) ([1]; mouse knee joint chondrocytes, siRNA): decreased; expression of the cartilage degeneration-inducing factors MMP (1, 3, 9, 12, 13), ADAMTS4, PTGS2, NOS2 [1]: decreased; expression of the cartilage degeneration-inducing factors MMP (1, 3, 9, 12, 13), ADAMTS4, PTGS2, NOS2 ([1]; listed as HIF-2α-siRNA): markedly decreased; level of metabolites nitric oxide (NO) and prostaglandin E2 (PGE2) [2]: decreased; MAP kinase phosphorylation (MAP kinase): significantly reduced
2 | IL-18: proinflammatory cytokine named in the legend of FIG. 2 | increased | –
3 | COc1cccc(-c2cc(=O)c3ccccc3o2)c1N [PD98059, reference compound] | – | expression of HIF-2α transcripts and proteins (HIF-2α): inhibition effect was slightly weak
4 | IL-17: proinflammatory cytokine (R&D Systems, USA) | increased | –
5 | C[S+]([O-])c1ccc(-c2nc(-c3ccncc3)c(-c3ccc(F)cc3)[nH]2)cc1 (stereo not shown) [SB203580, reference compound] | – | expression of HIF-2α transcripts and proteins (HIF-2α): no effect
6 | interleukin 1β [IL-1β] | increased | –
7 | CC(C)(C)c1ccc(S(=O)(=O)/C=C/C#N)cc1 [BAY 11-7085, reference compound] | – | expression of HIF-2α transcripts and proteins (HIF-2α): decreased remarkably
8 | IL-21: proinflammatory cytokine (R&D Systems, USA) | increased | –
9 | TNF-α | increased | –
10 | B1 | not affected | –
11 | B2 | not affected | –
12 | B3 | not affected | –

Reference: US8741868B2, “Pharmaceutical composition including an HIF-2 alpha inhibitor as an active ingredient for preventing or treating arthritis” (Gwangju Institute of Science and Technology, priority 2010, dated 2014)
